{"source": "patent US4145554A", "about": "“3-Nitropyrazole derivatives” (Eli Lilly and Company, priority 1977, dated 1979)", "key": {"Escherichia coli": {"system": "Escherichia coli", "experiment": "in vitro tube dilution test (MIC)", "format": "cell-based", "conditions": "tube dilution, read-out: MIC", "procedure,_shortened": "(§1)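 Standard tube dilution test; MIC reported as micrograms of compound per milliliter.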"}, "Mycoplasma gallisepticum": {"system": "Mycoplasma gallisepticum", "experiment": "in vitro tube dilution test (MIC)", "format": "cell-based", "conditions": "Mycoplasmoides gallisepticum; Mycoplasma galliseptioum, tube dilution; read-out: MIC", "procedure,_shortened": "as §1"}, "Mycoplasma synoviae": {"system": "Mycoplasma synoviae", "experiment": "in vitro tube dilution test (MIC)", "format": "cell-based", "conditions": "Mycoplasmopsis synoviae, Mycoplasma synoviae", "procedure,_shortened": "as §1"}, "Treponema hyodysenteriae": {"system": "Treponema hyodysenteriae", "experiment": "in vitro tube dilution test (MIC)", "format": "cell-based", "conditions": "Brachyspira hyodysenteriae"}, "[1]": {"system": "Bordetella bronchiseptica", "experiment": "in vitro tube dilution test (MIC)", "format": "cell-based"}, "Leptospira (5 serotypes)": {"system": "Leptospira (5 serotypes)", "experiment": "in vitro tube dilution test (MIC)", "format": "cell-based"}, "Hemophilus gallinarum": {"system": "Hemophilus gallinarum", "experiment": "in vitro tube dilution test (MIC)", "format": "cell-based"}, "Hemophilus somnus": {"system": "Hemophilus somnus", "experiment": "in vitro tube dilution test (MIC)", "format": "cell-based"}, "Clostridium perfringens": {"system": "Clostridium perfringens", "experiment": "microbe, parasite or virus in culture", "format": "cell-based"}, "[2]": {"system": "Salmonella typhimurium 1503", "experiment": "in vitro tube dilution test (MIC)", "format": "cell-based", "conditions": "Salmonella enterica, Salmonella typhimurium 1503 (poult intestine)"}, "Salmonella pullorum 9-27": {"system": "Salmonella pullorum 9-27", "experiment": "in vitro tube dilution test (MIC)", "format": "cell-based", "conditions": "Salmonella enterica; Salmonella pullorum 9-27, tube dilution"}, "Hemophilus influenzae": {"system": "Hemophilus influenzae", "experiment": "agar dilution technique (MIC)", "format": "cell-based", "conditions": "Haemophilus influenzae"}, "Serratia sp.": {"system": "Serratia sp.", "experiment": "agar dilution technique (MIC)", "format": "cell-based"}, "Diplococcus pneumoniae": {"system": "Diplococcus pneumoniae", "experiment": "agar dilution technique (MIC)", "format": "cell-based", "conditions": "Streptococcus pneumoniae"}, "Mima polymorpha": {"system": "Mima polymorpha", "experiment": "agar dilution technique (MIC)", "format": "cell-based"}, "Alkaligenes fecalis": {"system": "Alkaligenes fecalis", "experiment": "agar dilution technique (MIC)", "format": "cell-based"}, "P. multocida": {"system": "P. multocida", "experiment": "Mice infected with P. multocida, compound in drinking water", "format": "in vivo", "conditions": "7 days", "method": "Some of the 3-nitropyrazoles were also administered to mice infected with P. multocida. Tests were conducted in which the pyrazoles were administered both by injection and in the drinking water.\nThe table below reports results of tests in which the compound was administered in the water. Groups of 10 standardized white mice were segregated, and each mouse was infected by injecting a broth culture of P. multocida subcutaneously. The administration of the test compounds was begun at the same time the mice were infected by adding a known amount of the test compound to the drinking water of the mice. One group of infected control mice received no treatment. The mice were observed, and the test was concluded at the end of 7 days. The number of mice in each group which survived the P. multocida infection was recorded."}, "[3]": {"system": "naturally-occurring pneumoenteritis complex infection (pasteurella species, E. coli and salmonellae)", "experiment": "Pneumoenteritis complex disease in calves, first test", "format": "in vivo", "conditions": "for Mortality / Avg. Wt. Gain: milk replacer, 56 days; for Avg. Wt. Gain: survivors", "method": "Our compound, 1-(2-hydroxyethyl)-3-nitro-4-pyrazolecarboxamide, was evaluated in the control of a naturally-occurring pneumoenteritis complex infection of calves. […] A group of 24 calves was allocated randomly into three treatment groups. The average weights of the treatment groups were nearly identical at the start of the experiment. The calves were housed in quarters which were kept as clean as typical calf quarters, but in which calves suffering from pneumoenteritis complex had previously been housed. […] One group was a control group, and was fed on a typical milk replacer diet. The other two groups received 200 mg. and 400 mg. per day respectively of the 3-nitro-pyrazole compound, mixed in their milk replacer diets.\nThe calves were carefully observed daily to detect signs of illness as quickly as such signs appeared. The calves were weighed at weekly intervals. Various organs were removed from the calves which died during the experiment, and cultures were prepared from the organs to identify microorganisms. At the end of the 56-day experiment, cultures were prepared from nasal and rectal swabs of the surviving calves, and microorganisms in the cultures were identified."}, "[4]": {"system": "naturally-occurring pneumoenteritis complex infection (pasteurella species, E. coli and salmonellae)", "experiment": "Pneumoenteritis complex disease in calves, second test", "format": "in vivo", "method": "The test reported below was conducted in general identically with the test above. All of the calves used in the test were approximately 3 days old when the test began, and the test ran for 56 days.\nThe treated group received 200 mg./day/calf (about 3-5 mg./kg./day) of 1-(2-hydroxyethyl)-3-nitro-4-pyrazolecarboxamide, which was administered in the calves' milk replacer diet.\nThe table below reports the average weight gain of the surviving animals and the mortality of the calves in each group."}, "group E streptococci": {"system": "group E streptococci", "experiment": "Lymphadenitis in swine", "format": "in vivo", "conditions": "200 gm. per ton of feed; 7 weeks; 12 treated swine", "method": "The same 3-nitropyrazole tested in the example immediately above was also tested to determine its ability to prevent lymphadenitis, or jowl abscess, infections in swine. One group of 12 young swine was treated with the 3-nitropyrazole compound as a feed additive at the rate of 200 gm. per ton of feed, and another group of 12 swine was held as infected controls. Administration of the 3-nitropyrazole began shortly before the administration of the challenge, and continued throughout the 7-week test. All of the swine were challenged with a culture of group E streptococci isolated from jowl abscesses of an infected pig. The challenge organisms were administered as a dispersion in the swine's drinking water. After 7 weeks, all of the swine were slaughtered, and their cervical areas were examined for the presence of the abscesses caused by lymphadenitis infections. […] Abscesses were found in 9 of the 12 infected control animals."}, "[5]": {"conditions": "200 mg./day/calf (3-5 mg./kg./day)"}, "[6]": {"conditions": "400 mg./day/calf (6-10 mg./kg./day)"}}, "data": [{"molecule": "NC(=O)c1cn(CCO)nc1[N+](=O)[O-]", "note": "[Compound 32, 1-(2-hydroxyethyl)-3-nitro-4-pyrazolecarboxamide]", "values": [{"measurement": "MIC", "setting": "Escherichia coli", "result": 3.12, "unit": "µg/mL"}, {"measurement": "MIC", "setting": "Mycoplasma gallisepticum", "result": 0.78, "unit": "µg/mL"}, {"measurement": "MIC", "setting": "Mycoplasma synoviae", "result": 50, "unit": "µg/mL"}, {"measurement": "MIC", "setting": "Treponema hyodysenteriae", "result": 3.12, "unit": "µg/mL"}, {"measurement": "MIC", "setting": "[1]", "result": 25, "unit": "µg/mL"}, {"measurement": "MIC", "setting": "Leptospira (5 serotypes)", "result": "> 100", "unit": "µg/mL"}, {"measurement": "MIC", "setting": "Hemophilus gallinarum", "result": 0.78, "unit": "µg/mL"}, {"measurement": "MIC", "setting": "Hemophilus somnus", "result": "> 100", "unit": "µg/mL"}, {"measurement": "MIC", "setting": "Clostridium perfringens", "result": "25 to 50", "unit": "µg/mL"}, {"measurement": "MIC", "setting": "[2]", "result": "< 1.56", "unit": "µg/mL"}, {"measurement": "MIC", "setting": "Salmonella pullorum 9-27", "result": "< 1.56", "unit": "µg/mL"}, {"measurement": "MIC", "setting": "Hemophilus influenzae", "result": 4, "unit": "µg/mL"}, {"measurement": "MIC", "setting": "Serratia sp.", "result": 32, "unit": "µg/mL"}, {"measurement": "MIC", "setting": "Diplococcus pneumoniae", "result": 2, "unit": "µg/mL"}, {"measurement": "MIC", "setting": "Mima polymorpha", "result": 2, "unit": "µg/mL"}, {"measurement": "MIC", "setting": "Alkaligenes fecalis", "result": 128, "unit": "µg/mL"}, {"measurement": "Survival", "setting": "P. multocida; 0.1 gm./gal. in drinking water", "result": "8/10"}, {"measurement": "Survival", "setting": "P. multocida; 0.2 gm./gal. in drinking water", "result": "10/10"}, {"measurement": "Mortality", "setting": "[3]; [5]", "result": "1/8"}, {"measurement": "Avg. Wt. Gain", "setting": "[3]; [5]", "result": 36.6, "unit": "lbs."}, {"measurement": "Mortality", "setting": "[3]; [6]", "result": "1/8"}, {"measurement": "Avg. Wt. Gain", "setting": "[3]; [6]", "result": 55.3, "unit": "lbs."}, {"measurement": "surviving treated calves with P. multocida or hemolytica in nasal swabs", "setting": "[3]; 200 and 400 mg. per day groups, end of 56 days", "result": "11 of the 14 surviving treated calves"}, {"measurement": "surviving calves with E. coli in rectal swabs", "setting": "[3]; of 14 surviving treated calves, end of 56 days", "result": "12 of the surviving calves"}, {"measurement": "Mortality", "setting": "[4]; 200 mg./day/calf", "result": "about 12%"}, {"measurement": "surviving treated calves with E. coli in rectal swabs", "setting": "[4]; 200 mg./day/calf", "result": "all of the surviving treated calves"}, {"measurement": "survivors with P. multocida organisms in nasal secretions", "setting": "[4]; 200 mg./day/calf", "result": "6 of the survivors"}, {"measurement": "Mortality", "setting": "[4]; 200 mg./day/calf (about 3-5 mg./kg./day), 56 days", "result": "1/8"}, {"measurement": "Avg. Wt. Gain", "setting": "[4]; 200 mg./day/calf (about 3-5 mg./kg./day), 56 days, survivors", "result": 52.1, "unit": "lbs."}, {"measurement": "abscesses in cervical areas", "setting": "group E streptococci", "result": "No abscesses were found in any of the treated swine"}]}]}
